In US6849405B2, “Translation enhancer element of the human amyloid precursor protein gene” (The Brigham and Women's Hospital, Inc., priority 1997, dated 2005):
Several values for one entry are separate records, joined by “and”; a condition that tells them apart may be missing. Equal values may be shown once.

Columns and labels:
[1] = system: APP mRNA 5′ UTR (pSV2(APP)CAT reporter); experiment: CAT reporter activity in pSV2(APP)CAT-transfected astrocytoma cells; format: cell-based, human; details: for increase in CAT activity, maximal: pSV2(APP)CAT-transfected astrocytoma cells
Procedure: The pSV2(APP)CAT construct contains the APP gene 5′ UTR in between the SmaI and the NruI sites (+52 nt and +142 nt from the 5′ cap site respectively). pSV2(APP)CAT was prepared by two steps of subcloning. (1) A 3 kb SmaI-HindIII fragment containing the APP gene, including the coding region and a segment of the 3′ UTR was subcloned into compatible StuI-HindIII sites unique to the 5′ UTR of the CAT gene in the pSV2CAT expression vector. (2) The APP gene fragment in between the NruI and HindIII sites was removed from the construct. The restriction sites were then blunt-ended and religated. In the pSV2(APP)CAT transfectants, 90 nt of the APP gene 5′ UTR were expressed as part of a chimeric […] 5′ leader in the 1.5 kb APP/CAT transcript. The pSV2CAT construct contains the 5′ end of the CAT gene inserted into the unique polylinker site in pBluescript. A 250 nt HindIII/EcoRI fragment from the CAT gene in pSV2CAT was subcloned into the pBS vector (Stratagene). The CAT gene fragment codes for 36 nt of the CAT gene 5′ UTR and 218 bp of the 5′ end of the coding sequence of the CAT gene.
Astrocytoma and neuroblastoma cells were transfected with pSV2CAT or pSV2(APP)CAT by lipofection. Briefly, lipofectamine reagent (Boehringer) was added to DMEM (without serum) and allowed to sit 30 minutes at room temperature. Plasmids (10 μg) in an equal volume of DMEM were then added, and, after sitting for 45 minutes at room temperature, the lipid/DNA solution was added to 60% confluent cells on 100×20 mm cell culture plates. After 4 hours, this solution was removed, and the cells were washed twice in DMEM (without serum). Fresh DMEM medium (containing 10% fetal calf serum) was added. At this time, treatments were administered which included: (1) 0.5 ng/ml IL-1α; (2) 0.5 ng/ml IL-1β; (3) 5 μM Fe2TF (holo-transferrin); and (4) unstimulated controls. […]
After harvesting, cells were resuspended in 100 μl 0.25 M Tris, pH 7.8, and subjected to three cycles of freezing (liquid nitrogen) and […] (37° C.) to lyse cells. […] Protein concentration was determined by a Biorad assay, and exactly 20 μg of lysate was added to a CAT reaction mix containing 50 μl 1M Tris, pH 7.8, 20 μl acetylcoenzyme-A (3.5 mg/ml) and […] ^14C-labeled chloramphenicol (25 mCi/ml). […] For quantitative analysis, the areas on the TLC plates which aligned with dots on the film were excised and the radioactivity was counted in 5 ml of scintillation cocktail (Econofluor) using a scintillation counter (Hewlett Packard). In some experiments, CAT activity was measured by counting the amount of CAT reaction product diffusing into liquid scintillation fluid as described previously (Rogers, et al., Nucl. Acid Res. 22:2678 (1994)). […]

Apo-E protein synthesis = Apo-E protein synthesis (internal standard), primary astrocytes; format: cell-based; details: primary human astrocytes
Procedure: (§1) Secretion and labeling of APP(s) (protease-nexin-2) from primary astrocytes by IL-1 was measured in a separate set of experiments. Medium from 100 mm dishes (10 ml) of astrocyte cultures was collected after a 2-hour pulse labeling with 200 μCi/ml [^35S]-methionine. APP in 5 ml of precleared medium was immunoprecipitated using a 1:1500 dilution of rabbit polyclonal serum specific for amino acids 595-611 of APP (R1736, D. Selko). Apolipoprotein E was immunoprecipitated from 5 ml of culture supernatant using a 1:200 dilution of a polyclonal antiserum (Chemicon).
(§2) In all labeling experiments, immunoprecipitated protein was collected by the binding of antibody-labeled antigen complexes to Protein A Sepharose™ beads. Immunoprecipitated samples were applied to 10-20% tris-tricine gels (Novex) and the samples were electrophoresed in tris-tricine buffer according to the manufacturer's instructions. The gels were fixed with 25% methanol, […] for 1 hour, treated with fluorographic reagent (Amplify, Amersham) for 30 minutes, dried, and exposed to X-omat Kodak film overnight at −80° C.

[2] = system: L-ferritin synthesis in astrocytoma (U373MG) cells; experiment: L-ferritin synthesis, astrocytoma cells; format: cell-based, human; details: 0.5 ng/ml, 16 hrs
Procedure: (§3) Primary human astrocytes were prepared by trypsinization of human fetal brain tissue by a previously described method (Das, et al., Neuron 14; 447 (1995)). Cells were seeded onto poly-L-lysine (10 μg/ml) coated plates and were grown to 70% confluence in DMEM medium, (low glucose) supplemented with 10% fetal bovine serum. In order to eliminate microglia, the cultures were treated with 5 mM H-Leu-O-methylester (Guilian, J. Neurosci. Res. 18:155 (1987)). For immunofluorescence, cells were replated at a density of 100,000 cells per 60-mm petri dish on poly-L-lysine coated glass coverslips and grown for 24 hours in 0.5 ml of medium to allow the cells to attach. The presence of glial fibrillary acidic protein (GFAP) was detected by immunofluorescent staining of formaldehyde fixed cells using a 1:10 dilution of rabbit IgG1 antibody specific for human GFAP. Primary GFAP-specific antibody was added to the coverslips for 30 minutes at room temperature in phosphate buffered saline and 10% goat serum. The secondary antibodies used were goat anti-rabbit IgG conjugated to fluorescein isothiocyanate at a dilution of 1:100 (Boehringer). Fluorescence microscopy scored the cells used in the metabolic experiments as 95% pure astrocytes. […] The U373MG astrocytoma cell line was cultured on 100 mm uncoated dishes to 60-80% confluence in DMEM medium supplemented with 10% fetal bovine serum. […]

[3] = system: ferritin-H subunit synthesis in astrocytoma (U373MG) cells; experiment: Ferritin-H subunit synthesis, astrocytoma cells; format: cell-based, human; details: 0.5 ng/ml, 16 hrs
Procedure: as §3

[4] = system: APP(s) secretion from primary human astrocytes; experiment: Secretion of APP(s) (protease-nexin II) into medium from primary astrocytes; format: cell-based; details: 2 hour pulse labeling
Procedure: as §1, §2

interleukin-1β [IL-1β]
enhancement of CAT activity, parallel transfection ([1]; pSV2(APP)CAT transfectants, parallel to the pSV2CAT transfection): 3 fold
increase in CAT activity, maximal [1]: 4 fold
ApoE protein synthesis (Apo-E protein synthesis): no increase
enhanced rate of L-ferritin synthesis [2]: 2 fold
enhanced rate of ferritin-H subunit synthesis [3]: 5 fold
enhanced secretion of APP(s) into the medium [4]: 1.8 fold

interleukin-1α [IL-1α]
increase in CAT activity, average ([1]; pSV2(APP)CAT transfectants, matching experiments, average): 2.3 fold
increase in CAT activity, maximal [1]: 3 fold and 4 fold
ApoE protein synthesis (Apo-E protein synthesis): no increase
enhanced rate of L-ferritin synthesis [2]: 2 fold
enhanced rate of ferritin-H subunit synthesis [3]: 5 fold
increased accumulation of APP(s) ([4]; medium): 50%
